Results on four compounds are retold here after patent US20180200331A1, “BST-2 AS A THERAPEUTIC TARGET AND DIAGNOSTIC MARKER FOR BREAST CANCER GROWTH AND METASTASIS” (University of Iowa Research Foundation, priority 2015, published 2018).

Read-outs that look alike come from different tables or passages of the source. No end group written: not given here.

Data set [1] deals with BST-2. The data set is described as follows: shRNA knockdown of BST-2 in E0771 and 4T1 cells. As to conditions: E0771 and 4T1 cells stably transduced. It is filed as cell-based, mouse. From the text:
E0771 and 4T1 cells were stably transduced with a construct expressing LV-CMV-firefly luciferase or an empty vector construct using lipofectamine following the manufacturer's instructions (Life Technologies, Carlsbad, Calif., USA). Stable transfectants were then transduced with lentiviral particles carrying BST-2-targeting sh137: CCGGC […] (SEQ ID NO:3); sh413: […] TTCTCAAGCTTTTTG (SEQ ID NO:4); or a non-targeting shControl: […] (SEQ ID NO:5) using a previously described protocol. Stable cells were generated by selection with the appropriate drug. The short hairpin RNA (shRNA) constructs were purchased from Sigma-Aldrich (St Louis, Mo., USA) (SHCLND-NM_198095) and lentiviral particles were generated at the Gene Transfer Vector Core at the University of Iowa.
Cell monolayers were washed with PBS and treated with Versene (Life Technologies). […] Stained cells were quantified using a FACSCalibur flow cytometer (BD Biosciences, San Jose, Calif., USA). […] Fluorescence-activated cell sorting (FACS) data were analyzed by Flowjo software (TreeStar, Ashland, Oreg., USA). […]
Western blots were performed as previously described. […] Band detection and quantification were carried out with the Odyssey Infrared Imaging System (LI-COR Biosciences, Lincoln, Nebr., USA).

The subject of data set [2] is mammary cancer cells. As to the kind of experiment: Transformation assay (soft agar colony formation). To be noted: compared to shControl. It is filed as cell-based, mouse. The procedure: Agar was mixed in Roswell Park Memorial Institute medium (RPMI) with 20% FBS. A total of 500 μl of 0.5% agar was added to 24-well plate and allowed to solidify. Cells were plated at 1,250 cells/well in 500 μl of 0.35% agarose. Some 250 μl of the appropriate growth medium was added on top of the agarose layer. Growth medium was replaced twice a week. Colonies were stained with crystal violet and imaged. Colonies from five different fields were counted and averaged.

For data set [3], the system named is mammary cancer cells. As to the kind of experiment: Scratch assay. As to conditions: 6 h and 24 h. It is filed as cell-based, mouse. The procedure: Confluent monolayers of cancer cells plated in 12-well plates were scratched using a pipette tip. Fresh medium was added to the wells. Cells were allowed to migrate for 0, 6 or 24 hours before fixation (4% paraformaldehyde (PFA) for 45 minutes). Fixed cells were washed (1×PBS) and imaged with a Nikon Eclipse Ti microscope adjusted with a Nikon digital sight camera (Nikon, Tokyo, Japan). Images were processed and migrated cells counted using Image J software.

Data set [4] has as its system E0771 cells. As to the kind of experiment: Boyden chamber assay. It is filed as cell-based, mouse. To be noted: 20 hours. As for the experimental part: The apical chamber of 24-well cell culture inserts (Merck Millipore, Billerica, Mass., USA) were seeded with previously starved sh137, sh413 or shControl transduced E0771 cells (150,000) in serum-free medium. Culture medium containing 30% FBS was added to the basal chamber of the unit and cells were allowed to migrate through the membranous barrier for 20 hours at 37° C. Non-migrated cells were washed off, migrated cells were fixed with 4% PFA for 5 minutes, washed twice with 1×PBS, permeabilized with 100% methanol for 25 minutes, labeled with Giemsa stain (for 15 minutes at room temperature) and imaged using a Nikon Eclipse Ti microscope adjusted with an X-cite series 120 LED fluorescence microscope light source and a Nikon digital sight camera. Images were processed using Image J software. Cells from five different fields were counted and averaged.

The test system of another data set is E0771 or 4T1 cells. The data set is described as follows: Cell invasion assay (Matrigel). It is filed as cell-based, mouse. To be noted: 24 h. As for the experimental part:
The apical chamber of 24-well cell culture inserts (Merck Millipore) were coated with 3 mg/ml of Matrigel (100 μl) (Sigma-Aldrich) and allowed to solidify for 5 hours. A total of 100,000 sh413- or shControl-transduced E0771 or 4T1 cells in serum-free medium were plated on top of the Matrigel layer. Culture medium containing 10% FBS and 5 μg/ml fibronectin (adhesive substrate) (Sigma-Aldrich) was added to the basal chamber of the unit (600 μl) and cells were allowed to invade through the membranous barrier for 24 hours at 37° C. Noninvasive cells were washed off; invasive cells were fixed with 4% PFA, permeabilized with 100% methanol, labeled with Giemsa stain and imaged as described in the previous paragraph. Images were processed using Image J software. Cells from five different fields were counted and averaged.

The test system of another data set is E0771 and 4T1 cells. As to the kind of experiment: BrdU assay. In kind it is cell-based, mouse. The procedure: A total of 5,000 cells were plated in 96-well plates for 24 hours. Bromodeoxyuridine or 5-bromo-2′-deoxyuridine (BrdU) (Calbiochem, Billerica, Mass., USA) assay was carried out according to the manufacturer's instructions. Absorbance at 450 nm was read using a Tecan Infinite plate reader. In parallel, 150,000 cells were plated in 24-well plates for 24 hours. Cells were incubated with BrdU label (1:2000) for 20 hours, treated with a fixative/denaturing solution (30 minutes) and incubated with an anti-BrdU antibody (1:1000) and rat anti-mouse BST-2 antibody (1:200, eBioscience) for 1 hour at room temperature. Cells were washed and incubated with Alexa Fluor 594 anti-rat (Invitrogen, Waltham, Mass., USA) and Alexa Fluor 488 anti-mouse (Invitrogen) secondary antibodies for 30 minutes at room temperature. Cells were stained with 4′,6-diamidino-2-phenylindole (DAPI)-containing Vectashield (Vector Laboratories, Burlingame, Calif., USA) and imaged using a Zeiss 710 confocal microscope (Carl Zeiss, Oberkochen, Germany). Images were processed using Image J software. BrdU label, fixative/denaturing solution, and anti-BrdU antibody were from BrdU (Calbiochem) assay.
A general note: Dividing cells build labelled thymidine or BrdU into new DNA.

Data set [5] deals with E0771 cells. The data set is described as follows: MTT assay, E0771. It is filed as cell-based, mouse. The procedure:
A total of 5,000 cells stably expressing sh137, sh413, or shControl were plated in 96-well plates. Cells were then incubated with 5 mg/ml MTT reagent for 3.5 hours followed by addition of MTT solvent (0.1% NP-40 and 4 mM HCl in isopropanol) and rocking for 15 minutes. Absorbance at 590 nm was read using a Tecan Infinite M200 Pro plate reader.

Data set [6] has as its system BST-2. As to the kind of experiment: 5-azacytidine treatment, BST-2 RT-qPCR and flow cytometry. In kind it is cell-based, human. To be noted: 1 uM for 5 days. The procedure: Cell lines of interest were plated at 150,000 cells/well in a 6-well plate and treated with DMSO (vehicle) or 1 μM of 5-azacytidine (5-azaC, Sigma Aldrich) for 5 days. Cells were harvested using 0.25% trypsin-EDTA (Mediatech, Corning, N.Y., USA). Post-incubation, 8 ml of 10% FBS-containing RPMI media (Life Technologies) was added and cells were centrifuged. Media was aspirated and individual cells were resuspended in 2% FBS-containing PBS (Life Technologies). Cell suspension was passed through a […] cell strainer (Falcon). Cells were incubated at 4° C. for 1 hour with APC-conjugated anti-BST-2 primary antibodies or appropriate IgG (Ebioscience) and washed with 1×PBS. After washing, cells were incubated with the fluorescent intercalator-7-aminoactinomycin D (7-AAD) (BioLegend) at 4° C. for 30 minutes to exclude dead cells. Stained cells were quantified using a FACS Calibur flow cytometer (BD). 10,000 events were collected per sample and FACS data were analyzed and plotted using Flowjo software (TreeStar).
(§1) Human normal and breast cancer cell lines were plated at 150,000 cells/well in a 6-well plate and treated with DMSO (vehicle) or 1 μM of 5-azacytidine (5-azaC, Sigma Aldrich) for 5 days. Cells were lifted using Versene (a gentle cell dissociator, Life Technologies), washed with PBS, pelleted and stored at −20° C. until required for analysis. RNA was isolated from frozen cells using the RNeasy mini kit (Qiagen) according to manufacturer's instructions. Equivalent amounts of RNA were treated with DNase (Qiagen). A portion of RNA was subjected to cDNA synthesis (ABI) as previously described. RNA concentration and purity were assessed at 260/280 nm using the spectrophotometer. Using synthesized cDNA, sequence-specific primers were used to amplify BST-2 [4] and GAPDH [13,48]. Claudin-6 was amplified with (F: […], R: […]) primer pair. RT-qPCR was carried out with an ABI 7500 FAST thermal cycler in triplicates as previously described.
In general terms: Quantitative PCR measures a nucleic acid by following its amplification.

Data set [7] deals with Claudin-6 (CLDN6). As to the kind of experiment: 5-azacytidine treatment, CLDN6 RT-qPCR. In kind it is cell-based, human. As to conditions: HMLE, MCF-7, SK-BR-3, MDA-MB-231 cells, 1 uM for 5 days. The procedure: as §1
The nature of a further data set: Half-life of B49nc. From the text: We generated a truncated form of B49 called “B49nc” having the sequence […] (SEQ ID NO:14).
The test system of the next data set is MDA-MB-231 cells. As to the kind of experiment: Cancer cell to cancer cell adhesion assay on MDA-MB-231 shControl monolayers. It is filed as cell-based, human. To be noted: monolayers blocked with 200 ng/well for 4 hours; adhesion 4 hours. The procedure:
FIG. 46. […] Moreover, MDA-mb-231 SHcONTROL CELLS WERE ADDED TO mda-mb-231 ShBST-2 monolayers (on shBST-2). (Each data point corresponds to six different wells analyzed. Error bars correspond to SEM. Significance was taken at P<0.0005*** or P<0.0001****.
MDA-MB-231 cells expressing shBST-2 or shControl were plated to confluency in a 96-well plate. MDA-MB-231 shControl cells were blocked with water (Vehicle), 200 ng/well of recombinant BST-2 (Sino Biological Inc.), 200 ng/well of B49 peptide or 200 ng of B49nc peptide for 4 hours. Wells were washed twice with PBS and then PKH67 labeled MDA-MB-231 shControl cells were added to wells at 25,000 cells/well. Cells were allowed to adhere for 4 hours at 37° C. Non-adhered cells were washed off with PBS and plates were read at 485 nm/535 nm (excitation/emission) wavelengths using a Tecan Infinite M200 Pro plate reader (Tecan). Values are represented as relative fluorescence intensity (RFI).

The test system of data set [8] is BST-2. To be noted: cited from earlier work.
Data set [9] relates to Claudin-6 (CLDN6). To be noted: all cell types, GEO datasets; cited from earlier work.

Take “sh137: BST-2-targeting shRNA (SEQ ID NO:3), delivered by lentiviral particles (CCGGCGCGATCTTGGTGGTCCTGTTCTCGAGAACAGGACCACCAAGATCGCGTTTTTG)”: in the data set with BST-2 [1], the BST-2 expression entry is given as “reduced BST-2 expression”. In addition, in the data set with mammary cancer cells [2], the “colony numbers in soft agar” value is listed as “reduced colony numbers”. Moreover, the “migration into scratch wound” value in the data set with mammary cancer cells [3] was “showed some migration”. Further, in the data set with E0771 cells [4], the “rate of cell migration (Boyden chamber)” value is “significantly reduced rate of cell migration”. Further, the “invasion through Matrigel” value with E0771 or 4T1 cells is “reduced the ability of the cells to invade the basement membrane”. Moreover, the “cell proliferation (BrdU incorporation)” value in the data set with E0771 and 4T1 cells is “no effect on cell proliferation”. Moreover, in the data set on E0771 cells [5], the “cell viability (MTT)” value is on record as “equally viable”.
With `Nc1ncn([C@@H]2O[C@H](CO)[C@@H](O)[C@H]2O)c(=O)n1` [5-AzaC, 5-azacytidine], the “BST-2 levels (RNA and protein)” value with BST-2 [6] (HMLE cells) and in the data set with BST-2 [6] (MCF-7 cells) was “significant increase” in each case. Besides, the “BST-2 mRNA and protein levels” value in the data set with BST-2 [6] (MDA-MB-231 cells) and in the data set with BST-2 [6] (SK-BR-3 cells) was “unchanged” each time. In the data set with Claudin-6 (CLDN6) [7], the “CLDN6 mRNA level” value is listed as “induced in all cell types”.
With “TIKANSEACRDGLRAVMECRNVTHLLQQELTEAQKGFQDVEAQAATCNHTVMA (cysteines drawn unpaired) [B49nc]”, the half-life in “Half-life of B49nc” is ~20 h. Also, in the data set on MDA-MB-231 cells, the “cancer cell adhesion (relative fluorescence intensity)” value is “inhibits cancer cell adhesion”.
Take `Nc1ncn([C@H]2C[C@H](O)[C@@H](CO)O2)c(=O)n1` [DAC, 2′-deoxy-5-azacytidine]: the “BST-2 mRNA expression” value in the data set on BST-2 [8] (HB2 cells, GEO GSE28976) was “increased BST-2 mRNA expression”; in the data set with BST-2 [8] (MCF-7 cells, GEO GSE36683), “increased BST-2 mRNA expression”. The BST-2 levels entry in the data set with BST-2 [8] (MDA-MB-231 cells, GEO GSE28976) is given as “did not show any increase”; with BST-2 [8] (SK-BR-3 cells, GEO GSE28976) it was “did not show any increase”. Also, the “CLDN6 mRNA levels” value in the data set on Claudin-6 (CLDN6) [9] is recorded as “induced in all cell types”.

Usually half-life stands for how long it takes for the measured level to halve. Read a high half-life as slow decline.
